Experimental data: US6448378B2, “Compound delivery using rapidly dissolving collagen film” (priority 1998, dated 2002)

Legend:
[1] = HPLC analysis of mitomycin solution stability; type: physicochemical; settings: storage at ambient temperature and 4° C. in the dark
Experimental: In contrast to the stability of mitomycin in the collagen film, HPLC analysis of the mitomycin solution determined that stability was maintained for only 4 days following storage at ambient temperature and 4° C. in the dark. Dissolution and storage in 0.9% saline or phosphate buffer (pH 7.4) is not recommended due to degradation and precipitation.

[2] = test system: human subconjunctival fibroblasts derived from Tenon's membrane; settings: freshly prepared 0.4 mg/ml solution, dissolved in USP sterile water
Experimental: 6 mm diameter discs were cut from the film and applied to human subconjunctival fibroblasts derived from Tenon's membrane layered in 96 well plates (CSM supplemented with 10% fetal bovine serum). After 72 hours, mitomycin-induced inhibition of cell division was assessed by measuring the reduction in fluorescence intensity (RFU) using a fluorogenic CalceinAM assay (see, for example, Decherchi et al., J. Neurosci. Meth. 71: 205 (1997); Sugita, Pflitgers Arch. 429: 555 (1995); Padanilam et al., Ann. NY Acad. Sci. 720: 111 (1994); Lichtenfels et al., J. Immunol. Meth. 172: 227 (1994); and Wang et al., Human Immunol. 37: 264 (1993)).

In the case of `CO[C@@]12[C@H](COC(N)=O)C3=C(C(=O)C(C)=C(N)C3=O)N1C[C@@H]1N[C@@H]12` [mitomycin solution, mitomycin], the “time for which stability of the solution was maintained (HPLC)” value [1] is reported as 4 days and the “% cell death inhibition relative to the values of the mitomycin-collagen films (91%, 90%, 92%)” value [2] is reported as “comparable”.
